Experimental data published in patent US20070219186A1, “Pyrazolo[1,5-A]pyrimidine derivatives and methods of use thereof” (priority 2006, published 2007).
Like-named read-outs stand apart in the source and are kept apart here.

Target: T1, human B-Raf (Homo sapiens, UniProt P15056)
T1 construct: Flag; GST; made in house; host or cells: Sf9 insect cells (B-Raf); E. coli (MEK1-GST)
Assay: B-Raf Kinase to MEK1 ELISA
Type: biochemical
Conditions: for inhibition at 10 µM: read-out: % Inhib./10 uM
In short: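 Flag/GST-tagged human B-Raf (Sf9, ~20 ng/point) phosphorylates non-active GST-MEK1 (50 nM final) with ATP and MgCl2 in MOPS pH 7.2 buffer, 60 min at RT. Product is captured on anti-GST plates; MEK1 pSer217/221 is read by phospho-antibody plus europium conjugate (DELFIA).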

[1] = median, cpd concentrations from 10 μM to 30 nM in half log dilutions, read-out: Median IC50

T1 sequence (P15056 whole entry): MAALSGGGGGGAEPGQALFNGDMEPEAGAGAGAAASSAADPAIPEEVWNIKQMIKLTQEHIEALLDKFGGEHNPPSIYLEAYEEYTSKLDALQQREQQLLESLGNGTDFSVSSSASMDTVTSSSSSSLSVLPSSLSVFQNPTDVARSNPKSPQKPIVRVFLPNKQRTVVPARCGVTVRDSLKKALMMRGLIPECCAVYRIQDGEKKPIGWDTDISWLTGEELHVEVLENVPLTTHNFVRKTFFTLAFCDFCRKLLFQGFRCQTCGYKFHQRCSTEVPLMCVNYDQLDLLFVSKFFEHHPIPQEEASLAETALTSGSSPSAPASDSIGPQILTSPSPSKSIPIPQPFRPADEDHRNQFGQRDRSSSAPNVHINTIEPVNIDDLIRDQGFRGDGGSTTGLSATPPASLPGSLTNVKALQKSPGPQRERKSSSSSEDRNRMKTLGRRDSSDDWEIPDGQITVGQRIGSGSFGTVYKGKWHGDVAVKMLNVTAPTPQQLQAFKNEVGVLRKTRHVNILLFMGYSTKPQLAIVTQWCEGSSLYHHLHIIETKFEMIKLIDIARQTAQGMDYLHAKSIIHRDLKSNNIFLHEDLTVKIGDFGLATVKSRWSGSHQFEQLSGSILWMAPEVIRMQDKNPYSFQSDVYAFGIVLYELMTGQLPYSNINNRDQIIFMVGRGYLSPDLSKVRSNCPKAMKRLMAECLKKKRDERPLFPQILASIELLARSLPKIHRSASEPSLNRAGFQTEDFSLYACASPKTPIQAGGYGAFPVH

Row | IC50 [1] [µM] | inhibition at 10 µM [%] | IC50 [µM] | Compound
1 | > 10 | 24 |  | O=C(Nc1cccc(-c2ccnc3cc(-c4ccncc4)nn23)c1)c1ccccc1Cl [Example 145, 2-chloro-N-[3-(2-pyridin-4-ylpyrazolo[1,5-a]pyrimidin-7-yl)phenyl]benzamide]
2 | 1.4 | 66 |  | Cc1cccc(C(=O)Nc2cccc(-c3ccnc4cc(-c5ccncc5)nn34)c2)c1 [Example 147, 3-methyl-N-[3-(2-pyridin-4-ylpyrazolo[1,5-a]pyrimidin-7-yl)phenyl]benzamide]
3 | > 10 | 20 |  | Cc1ccc(C(=O)Nc2cccc(-c3ccnc4cc(-c5ccncc5)nn34)c2)cc1 [Example 148, 4-methyl-N-[3-(2-pyridin-4-ylpyrazolo[1,5-a]pyrimidin-7-yl)phenyl]benzamide]
4 |  | 72 | 1.25 | O=C(Nc1cccc(-c2ccnc3cc(-c4ccncc4)nn23)c1)c1ccc(Cl)c(Cl)c1 [Example 149, 3,4-dichloro-N-[3-(2-pyridin-4-ylpyrazolo[1,5-a]pyrimidin-7-yl)phenyl]benzamide]
5 | > 10 | 33 |  | O=C(Nc1cccc(-c2ccnc3cc(-c4ccncc4)nn23)c1)c1ccc(Cl)cc1 [Example 151, 4-chloro-N-[3-(2-pyridin-4-ylpyrazolo[1,5-a]pyrimidin-7-yl)phenyl]benzamide]
6 | > 10 |  |  | O=C(Nc1cccc(-c2ccnc3cc(-c4cccnc4)nn23)c1)c1cccc(C(F)(F)F)c1 [Example 152, N-[3-(2-pyridin-3-ylpyrazolo[1,5-a]pyrimidin-7-yl)phenyl]-3-(trifluoromethyl)benzamide]
7 | > 10 | 31 |  | O=C(Nc1cccc(-c2ccnc3ccnn23)c1)c1cccc(C(F)(F)F)c1 [Example 153, N-(3-pyrazolo[1,5-a]pyrimidin-7-ylphenyl)-3-(trifluoromethyl)benzamide]
8 |  | 103 | 0.095 | O=C(Nc1cccc(-c2ccnc3c(-c4cccnc4)cnn23)c1)c1cccc(C(F)(F)F)c1 [Example 155, N-[3-(3-pyridin-3-ylpyrazolo[1,5-a]pyrimidin-7-yl)phenyl]-3-(trifluoromethyl)benzamide]
9 |  | 86 | 0.1 | Nc1cccc(-c2cnn3c(-c4cccc(NC(=O)c5cccc(C(F)(F)F)c5)c4)ccnc23)c1 [Example 156, N-{3-[3-(3-aminophenyl)pyrazolo[1,5-a]pyrimidin-7-yl]phenyl}-3-(trifluoromethyl)benzamide]
10 |  | 66 | 0.3 | CN(C)c1ccc(-c2cnn3c(-c4cccc(NC(=O)c5cccc(C(F)(F)F)c5)c4)ccnc23)cc1 [Example 157, N-(3-{3-[4-(dimethylamino)phenyl]pyrazolo[1,5-a]pyrimidin-7-yl}phenyl)-3-(trifluoromethyl)benzamide]
11 | > 10 | 39 |  | O=C(Nc1cccc(-c2ccnc3c(-c4ccc(Cl)cc4)cnn23)c1)c1cccc(C(F)(F)F)c1 [Example 158, N-{3-[3-(4-chlorophenyl)pyrazolo[1,5-a]pyrimidin-7-yl]phenyl}-3-(trifluoromethyl)benzamide]
12 |  | 51 |  | Cc1ccc(-c2cnn3c(-c4cccc(NC(=O)c5cccc(C(F)(F)F)c5)c4)ccnc23)cc1 [Example 160, N-{3-[3-(4-methylphenyl)pyrazolo[1,5-a]pyrimidin-7-yl]phenyl}-3-(trifluoromethyl)benzamide]
13 |  | 87 | 0.67 | Cc1ccc(C(=O)Nc2cccc(-c3ccnc4c(Br)cnn34)c2)cc1C(F)(F)F [Example 161, N-[3-(3-bromopyrazolo[1,5-a]pyrimidin-7-yl)phenyl]-4-methyl-3-(trifluoromethyl)benzamide]
14 |  | 75 | 2.1 | COc1ccc(C(=O)Nc2cccc(-c3ccnc4c(Br)cnn34)c2)cc1C(F)(F)F [Example 162, N-[3-(3-bromopyrazolo[1,5-a]pyrimidin-7-yl)phenyl]-4-methoxy-3-(trifluoromethyl)benzamide]
15 | 4.2 | 74 |  | O=C(Nc1cccc(-c2ccnc3c(Br)cnn23)c1)c1ccc(F)c(C(F)(F)F)c1 [Example 163, N-[3-(3-bromopyrazolo[1,5-a]pyrimidin-7-yl)phenyl]-4-fluoro-3-(trifluoromethyl)benzamide]
16 | > 10 | 58 |  | O=C(Nc1cccc(-c2ccnc3c(Br)cnn23)c1)c1ccc(Cl)c(C(F)(F)F)c1 [Example 164, N-[3-(3-bromopyrazolo[1,5-a]pyrimidin-7-yl)phenyl]-4-chloro-3-(trifluoromethyl)benzamide]

Row | IC50 [1] [µM] | inhibition at 10 µM [%] | IC50 [µM] | Compound
17 | > 10 | 64 |  | O=C(Nc1cccc(-c2ccnc3c(Br)cnn23)c1)c1ccc(Cl)c(Cl)c1 [Example 165, N-[3-(3-bromopyrazolo[1,5-a]pyrimidin-7-yl)phenyl]-3,4-dichlorobenzamide]
18 | 1.33 | 94 |  | O=C(Nc1cccc(-c2ccnc3c(Br)cnn23)c1)Nc1cccc(C(F)(F)F)c1 [Example 166, N-[3-(3-bromopyrazolo[1,5-a]pyrimidin-7-yl)phenyl]-N′-[3-(trifluoromethyl)phenyl]urea]
19 | 4.99 | 59 |  | O=C(Nc1cccc(-c2ccnc3c(Br)cnn23)c1)Nc1ccc(F)c(C(F)(F)F)c1 [Example 167, N-[3-(3-bromopyrazolo[1,5-a]pyrimidin-7-yl)phenyl]-N′-[4-fluoro-3-(trifluoromethyl)phenyl]urea]
20 | 2.41 | 58 |  | O=C(Nc1cccc(-c2ccnc3c(Br)cnn23)c1)Nc1ccc(Cl)c(Cl)c1 [Example 168, N-[3-(3-bromopyrazolo[1,5-a]pyrimidin-7-yl)phenyl]-N′-(3,4-dichlorophenyl)urea]
21 |  | 96 | 0.07 | Cc1ccc(C(=O)Nc2cccc(-c3ccnc4c(-c5cccnc5)cnn34)c2)cc1C(F)(F)F [Example 169, 4-methyl-N-[3-(3-pyridin-3-ylpyrazolo[1,5-a]pyrimidin-7-yl)phenyl]-3-(trifluoromethyl)benzamide]
22 |  | 96 | 0.14 | COc1ccc(C(=O)Nc2cccc(-c3ccnc4c(-c5cccnc5)cnn34)c2)cc1C(F)(F)F [Example 170, 4-methoxy-N-[3-(3-pyridin-3-ylpyrazolo[1,5-a]pyrimidin-7-yl)phenyl]-3-(trifluoromethyl)benzamide]
23 | 0.38 | 87 |  | O=C(Nc1cccc(-c2ccnc3c(-c4cccnc4)cnn23)c1)c1ccc(F)c(C(F)(F)F)c1 [Example 171, 4-fluoro-N-[3-(3-pyridin-3-ylpyrazolo[1,5-a]pyrimidin-7-yl)phenyl]-3-(trifluoromethyl)benzamide]
24 | 1.01 | 81 |  | O=C(Nc1cccc(-c2ccnc3c(-c4cccnc4)cnn23)c1)c1ccc(Cl)c(C(F)(F)F)c1 [Example 172, 4-chloro-N-[3-(3-pyridin-3-ylpyrazolo[1,5-a]pyrimidin-7-yl)phenyl]-3-(trifluoromethyl)benzamide]
25 | 0.44 | 85 |  | O=C(Nc1cccc(-c2ccnc3c(-c4cccnc4)cnn23)c1)Nc1cccc(C(F)(F)F)c1 [Example 173, N-[3-(3-pyridin-3-ylpyrazolo[1,5-a]pyrimidin-7-yl)phenyl]-N′-[3-(trifluoromethyl)phenyl]urea]
26 | 0.11 | 96 |  | O=C(Nc1cccc(-c2ccnc3c(-c4cccnc4)cnn23)c1)Nc1ccc(Cl)c(C(F)(F)F)c1 [Example 174, N-[4-chloro-3-(trifluoromethyl)phenyl]-N′-[3-(3-pyridin-3-ylpyrazolo[1,5-a]pyrimidin-7-yl)phenyl]urea]
27 | 0.45 | 70 |  | O=C(Nc1cccc(-c2ccnc3c(-c4cccnc4)cnn23)c1)Nc1ccc(Cl)c(Cl)c1 [Example 175, N-(3,4-dichlorophenyl)-N′-[3-(3-pyridin-3-ylpyrazolo[1,5-a]pyrimidin-7-yl)phenyl]urea]
28 | 0.36 | 86 |  | CCOC(=O)c1cnn2c(-c3cccc(NC(=O)c4cccc(C(F)(F)F)c4)c3)c(C)cnc12 [Example 176, ethyl 6-methyl-7-(3-{[3-(trifluoromethyl)benzoyl]amino}phenyl)pyrazolo[1,5-a]pyrimidine-3-carboxylate]
29 | 0.2 | 95 |  | Cc1cnc2cc(-c3ccncc3)nn2c1-c1cccc(NC(=O)c2cccc(C(F)(F)F)c2)c1 [Example 177, N-[3-(6-methyl-2-pyridin-4-ylpyrazolo[1,5-a]pyrimidin-7-yl)phenyl]-3-(trifluoromethyl)benzamide]
30 |  | 67 | 3.16 | Cc1cnc2c(Br)cnn2c1-c1cccc(NC(=O)c2cccc(C(F)(F)F)c2)c1 [Example 178, N-[3-(3-bromo-6-methylpyrazolo[1,5-a]pyrimidin-7-yl)phenyl]-3-(trifluoromethyl)benzamide]
31 |  | 90 | 0.65 | Cc1cnc2c(-c3cccnc3)cnn2c1-c1cccc(NC(=O)c2cccc(C(F)(F)F)c2)c1 [Example 179, N-[3-(6-methyl-3-pyridin-3-ylpyrazolo[1,5-a]pyrimidin-7-yl)phenyl]-3-(trifluoromethyl)benzamide]

Row | Compound | IC50 [1] [µM] | inhibition at 10 µM [%] | IC50 [µM]
32 | COc1cccc(C(=O)Nc2cccc(-c3ccnc4cc(-c5ccncc5)nn34)c2)c1 [Example 146, 3-methoxy-N-[3-(2-pyridin-4-ylpyrazolo[1,5-a]pyrimidin-7-yl)phenyl]benzamide] |  |  | 4
33 | O=C(Nc1cccc(-c2ccnc3cc(-c4ccncc4)nn23)c1)c1cccc(Cl)c1 [Example 150, 3-chloro-N-[3-(2-pyridin-4-ylpyrazolo[1,5-a]pyrimidin-7-yl)phenyl]benzamide] |  |  | 1.1
